Key:
[1] = target: T1, P2Y1 (Homo sapiens, UniProt P47900); assay: Intracellular Ca2+ release in HEK293 cells transfected with P2RY1; format: cell-based; conditions: HEK293 transfected with P2RY1, Fig. 3f
T1 construct: expressed in transfected cells; host or cells: HEK293
Description: (§1) For fluorometric measurements of intracellular Ca^2+ levels with the FlexStationII instrument (Molecular Devices), RAW264.7 and H1819 cells were seeded into 96-well plates (3.0 × 10^4 cells/well) 24 h prior to assay. Ca^2+ measurements with transiently transfected HEK293 cells were performed 48 h after transfection. Cells were loaded with 200 µl Calcium 5 reagent (Explorer Kit, Molecular Devices, USA) for 60 min at 37 °C, and the assay was performed as described. Agonists and inhibitors were solved in DMSO (100x) and diluted […] in 96-well compound plates containing HBSS. 50 µl of compound solution were added to the assay plate resulting in final concentration of 1% DMSO. Fold-response was calculated by RFUmax − RFUmin (ligand)/RFUmax − RFUmin (vehicle). EC50 values were calculated by using GraphPad Prism6 software (GraphPad, USA).

[2] = target: T2, human TSH receptor (TSHR) (Homo sapiens, UniProt P16473); assay: Cell surface expression of TSH receptor, cell surface ELISA; format: cell-based; conditions: HEK293 transfected with HA-tagged human TSHR, Fig. 5e
T2 construct: HA tag (N); expressed in transfected cells; host or cells: HEK293
T2 sequence (P16473 21-764): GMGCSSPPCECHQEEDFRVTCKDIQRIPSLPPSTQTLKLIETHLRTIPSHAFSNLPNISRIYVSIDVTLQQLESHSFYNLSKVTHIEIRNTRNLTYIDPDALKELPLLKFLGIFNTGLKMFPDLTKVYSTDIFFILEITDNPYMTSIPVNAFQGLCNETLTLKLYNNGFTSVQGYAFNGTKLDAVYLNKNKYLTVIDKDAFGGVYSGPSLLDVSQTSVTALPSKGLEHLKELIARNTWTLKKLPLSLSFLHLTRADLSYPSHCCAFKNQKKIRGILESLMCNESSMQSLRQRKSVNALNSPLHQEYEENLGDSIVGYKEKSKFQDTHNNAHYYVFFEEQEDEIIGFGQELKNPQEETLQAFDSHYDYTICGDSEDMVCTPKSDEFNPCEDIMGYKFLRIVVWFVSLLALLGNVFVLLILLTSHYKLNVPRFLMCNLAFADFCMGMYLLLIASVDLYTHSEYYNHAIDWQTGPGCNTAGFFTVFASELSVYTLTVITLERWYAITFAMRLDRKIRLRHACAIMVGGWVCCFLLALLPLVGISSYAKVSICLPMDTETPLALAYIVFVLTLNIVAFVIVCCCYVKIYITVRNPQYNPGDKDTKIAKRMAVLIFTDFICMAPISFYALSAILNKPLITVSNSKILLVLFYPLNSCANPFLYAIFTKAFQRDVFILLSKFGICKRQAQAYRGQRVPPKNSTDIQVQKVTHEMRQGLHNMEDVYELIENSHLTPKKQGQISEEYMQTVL
Description: To estimate cell surface expression of heterologously expressed receptors carrying an N-terminal HA tag, an indirect cellular ELISA was used[57]. To determine the endogenous cell surface expression of P2Y6, the same ELISA procedure was performed with minor modifications. Briefly, after 4% paraformaldehyde fixation and blocking with 10% FBS, cells were incubated with the primary anti-P2Y6 antibody (sc-15215; Santa Cruz Biotechnology, USA) in 1:1,000 dilution for 1 h. After washing with PBS, cells were incubated with peroxidase-conjugated secondary antibody anti-goat IgG (sc-2020, Santa Cruz Biotechnology, USA) in 1:5,000 dilutions.

[3] = target: T3, P2Y6 Y262 to alanine (Homo sapiens, UniProt Q15077, Y262A); assay: IP1 accumulation assay, mutant P2Y6 Y262A; format: cell-based; conditions: Fig. 6d
T3 construct: expressed in transfected cells; host or cells: HEK293
T3 sequence (Q15077 whole entry Y262A): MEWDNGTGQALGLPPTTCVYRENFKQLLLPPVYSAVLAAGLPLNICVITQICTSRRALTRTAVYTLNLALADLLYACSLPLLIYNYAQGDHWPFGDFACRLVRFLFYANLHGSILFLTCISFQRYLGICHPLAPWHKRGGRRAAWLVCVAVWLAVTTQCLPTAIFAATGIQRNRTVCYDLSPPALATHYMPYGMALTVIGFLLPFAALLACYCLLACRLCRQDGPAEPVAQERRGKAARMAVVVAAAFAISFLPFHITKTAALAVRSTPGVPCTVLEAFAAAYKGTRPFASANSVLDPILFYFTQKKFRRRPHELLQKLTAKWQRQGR
From the text: (§2) cDNA from H1819 cells was used to amplify and clone the P2RY6 and CNR2 coding sequences. They were double-tagged with an N-terminal HA epitope and a C-terminal FLAG epitope and, for transient transfection, introduced into the mammalian expression vector pcDps[56]. All mutant constructs were generated by a PCR-based site-directed mutagenesis and fragment replacement strategy. For stable transfection, P2RY6 was sub-cloned into the pIRES-eGFP vector (CLONTECH Laboratories, USA). All constructs were verified by sequencing.
To measure intracellular IP3 the HitHunter® Inositol (1,4,5) Triphosphate Assay (DiscoveRx, USA) was used according to manufacturer′s protocol. HEK293 cells stably transfected with hP2RY6 were seeded in a 384-well Black microtiter plate (15,000 cells/well) (Greiner Bio One, Germany) and incubated with indicated concentrations of UDP and PGE2-G for 20 seconds. Reaction was stopped by adding 5 µl 0.2 N perchloric acid and measurement of IP3 was performed with the Fusion AlphaScreen multilabel reader (PerkinElmer Life Sciences) according to manufacturer′s protocol. To measure IP1, HEK293 cells expressing wildtype and mutant P2Y6 were seeded into 384-well plates (5,000 cells/well) 24 h prior assay. After aspiration of the medium, cells were incubated with indicated concentrations of agonists/antagonist for 1 h. […]

[4] = test system: H1819 cells; assay: Intracellular Ca2+ measurement in H1819 cells; format: cell-based, human
Description: as §1

[5] = test system: 78 orphan GPCRs; assay: PathHunter β-Arrestin Orphan GPCR cell line panel, whole panel; format: cell-based; conditions: β-arrestin recruitment
From the text: For screening orphan GPCRs as possible targets for PGE2-G, the PathHunter® β-Arrestin assay (DiscoveRx Co., USA) was used. It monitors the activation of a GPCR by utilizing an enzyme fragment complementation assay with β-galactosidase as the functional reporter. Briefly, the enzyme is split into two complementary portions expressed as fusion proteins in the cell. The enzyme acceptor is fused to β2-arrestin, and the ProLink donor peptide is fused to the GPCR of interest. Upon GPCR stimulation, β2-arrestin is recruited to the receptor, bringing the two fragments of β-galactosidase together. This generates an active enzyme that can convert a chemiluminescent substrate, generating a signal detectable on a standard microplate reader (see manufacturer’s instructions). In total, 78 GPCRs, previously considered orphan and individually transfected into cells, were screened by DiscoveRx (Supplementary Table S1). The percentage activity given in the results is calculated using the following formula: % activity = 100% × (mean RLU of test sample - mean RLU of vehicle control)/mean RLU of vehicle control).

[6] = test system: RAW264.7 cells; conditions: RAW264.7 and H1819 cell lines; read-out: EC50, Ca2+ response; cited from earlier work
[7] = target: T4, P2Y6 F252A (Homo sapiens, UniProt Q15077, F252A); assay: IP1 accumulation assay, mutant P2Y6 F252A; format: cell-based; conditions: for IP1 formation at mutant receptor: Fig. 6d
T4 construct: expressed in transfected cells; host or cells: HEK293
T4 sequence (Q15077 whole entry F252A): as the sequence (Q15077 whole entry Y262A) above, with F252A, A262Y counted along it
From the text: as §2
To measure intracellular IP3 the HitHunter® Inositol (1,4,5) Triphosphate Assay (DiscoveRx, USA) was used according to manufacturer′s protocol. HEK293 cells stably transfected with hP2RY6 were seeded in a 384-well Black microtiter plate (15,000 cells/well) (Greiner Bio One, Germany) and incubated with indicated concentrations of UDP and PGE2-G for 20 seconds. Reaction was stopped by adding 5 µl 0.2 N perchloric acid and measurement of IP3 was performed with the Fusion AlphaScreen multilabel reader (PerkinElmer Life Sciences) according to manufacturer′s protocol. To measure IP1, HEK293 cells expressing wildtype and mutant P2Y6 were seeded into 384-well plates (5,000 cells/well) 24 h prior assay. After aspiration of the medium, cells were incubated with indicated concentrations of agonists/antagonist for 1 h. IP1 measurements using the IP-one HTFR® assay kit (Cisbio assays, USA) were performed according to manufacturer′s protocol. The assays were performed with a final concentration of 1% DMSO.

[8] = target: T5, cannabinoid receptor 2 (Cnr2) (Homo sapiens, UniProt P34972); assay: Intracellular Ca2+ measurement in CNR2-transfected HEK293 cells; format: cell-based; conditions: 200 nM of 2-AG, Fig. 2c
T5 construct: expressed in transfected cells; host or cells: HEK293
T5 sequence (P34972 whole entry): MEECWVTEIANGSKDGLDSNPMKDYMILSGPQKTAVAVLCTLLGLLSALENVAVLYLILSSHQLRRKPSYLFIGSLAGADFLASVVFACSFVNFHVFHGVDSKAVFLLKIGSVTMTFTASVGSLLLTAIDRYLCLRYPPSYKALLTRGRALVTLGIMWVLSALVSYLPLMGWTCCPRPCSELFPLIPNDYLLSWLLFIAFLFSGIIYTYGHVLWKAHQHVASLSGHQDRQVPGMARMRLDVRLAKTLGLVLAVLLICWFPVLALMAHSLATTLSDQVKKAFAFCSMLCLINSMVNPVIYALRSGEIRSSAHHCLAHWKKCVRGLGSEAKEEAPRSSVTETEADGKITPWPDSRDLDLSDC
Description: RAW264.7 cells were grown in DMEM supplemented with 10% FBS, A7r5 (rat […]) cells in DMEM with 10% FBS, and A431 (human squamous carcinoma) cells in RPMI supplemented with 10% FBS. All cell lines were grown at 37 °C in a humidified 5% CO2 incubator. For functional assays, receptor constructs were heterologously expressed in human embryonic kidney (HEK293) cells upon transient or stable transfection. Cells were grown in DMEM/F12 supplemented with 10% FBS, 100 units/ml penicillin, and 100 µg/ml streptomycin. For the cAMP-inhibition assay, ERK1/2 phosphorylation assay, and Ca^2+ mobilization assay, cells were split into 96-well plates (2.0 × 10^4 cells/well) and transfected with 250 ng vector construct using MACSfectin™ (Miltenyi Biotec, Germany) according to manufacturer’s protocol. Empty vector (mock) served as the negative control. For siRNA experiments, cells were seeded in 6-well plates (4.0 × 10^5 and 6.0 × 10^5 cells/well for RAW264.7 and H1819, respectively). […]
For fluorometric measurements of intracellular Ca^2+ levels with the FlexStationII instrument (Molecular Devices), RAW264.7 and H1819 cells were seeded into 96-well plates (3.0 × 10^4 cells/well) 24 h prior to assay. […] Fold-response was calculated by RFUmax − RFUmin (ligand)/RFUmax − RFUmin (vehicle). EC50 values were calculated by using GraphPad Prism6 software (GraphPad, USA).

[9] = target: P2Y6 (Homo sapiens, UniProt Q15077); assay: Functional readouts at P2Y6, summary statements; format: cell-based; conditions: for EC50: summary value
Sequence of P2Y6 (Q15077 whole entry): as the sequence (Q15077 whole entry Y262A) above, with A262Y counted along it

T1 sequence (P47900 whole entry, species assumed): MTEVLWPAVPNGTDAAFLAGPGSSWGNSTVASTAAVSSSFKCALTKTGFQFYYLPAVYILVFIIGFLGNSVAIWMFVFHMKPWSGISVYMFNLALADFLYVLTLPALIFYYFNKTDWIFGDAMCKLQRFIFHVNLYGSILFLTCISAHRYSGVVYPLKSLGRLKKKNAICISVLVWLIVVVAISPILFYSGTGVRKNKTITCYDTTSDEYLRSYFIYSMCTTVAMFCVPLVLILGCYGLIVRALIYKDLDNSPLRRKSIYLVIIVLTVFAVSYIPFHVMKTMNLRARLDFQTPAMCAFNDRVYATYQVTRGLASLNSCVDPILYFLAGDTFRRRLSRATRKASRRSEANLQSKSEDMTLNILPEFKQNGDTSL

| EC50 ([4]; Fig. 1d, read-out: EC50, intracellular Ca2+ release) | EC50 ([7]; Fig. 6e) | Compound | Ca2+ release [1] | effect on cell surface expression of the TSH receptor [2] | IP1 formation at mutant receptor [3] | Maximum RFU for PGE2-G ([4]; control (1% DMSO) 5,247 ± 2,016) | response of orphan GPCRs [5] | EC50 [6] | IP1 formation at mutant receptor [7] | effect on intracellular Ca2+ [8] | Emax values ([9]; most functional assays, Figs 3a–c and 6a) | EC50 [9] |
| --- | --- | --- | --- | --- | --- | --- | --- | --- | --- | --- | --- | --- |
| – | – | Prostaglandin E2 glyceryl ester [PGE2-G] | not and neither P2Y1 nor P2Y12 showed activity | no effect | fully activated | 13,143 ± 2,157 RFU | None of the tested receptors demonstrated a positive response | ~0.001 nM | loss of PGE2-G-induced IP1 formation | did not | slightly lower compared to UDP | ~0.001 nM |
| 25.9 ± 2.8 nM | 12.7 ± 2.1 nM | O=c1ccn([C@@H]2O[C@H](COP(=O)(O)OP(=O)(O)O)[C@@H](O)[C@H]2O)c(=O)[nH]1 [UDP] | – | no effect | significantly reduced activity | – | – | – | efficacy remained unchanged | – | – | ~50 nM |
